This note sets out measurements from patent US9540391B2, “Isomannide derivatives as inhibitors of soluble epoxide hydrolase” (SANOFI, priority 2013, dated 2017).

The assay has as its target T1, recombinant sEH (Homo sapiens, UniProt P34913).
T1 construct: made in house; host or cells: Sf9 insect cells
T1 sequence (P34913 1-555): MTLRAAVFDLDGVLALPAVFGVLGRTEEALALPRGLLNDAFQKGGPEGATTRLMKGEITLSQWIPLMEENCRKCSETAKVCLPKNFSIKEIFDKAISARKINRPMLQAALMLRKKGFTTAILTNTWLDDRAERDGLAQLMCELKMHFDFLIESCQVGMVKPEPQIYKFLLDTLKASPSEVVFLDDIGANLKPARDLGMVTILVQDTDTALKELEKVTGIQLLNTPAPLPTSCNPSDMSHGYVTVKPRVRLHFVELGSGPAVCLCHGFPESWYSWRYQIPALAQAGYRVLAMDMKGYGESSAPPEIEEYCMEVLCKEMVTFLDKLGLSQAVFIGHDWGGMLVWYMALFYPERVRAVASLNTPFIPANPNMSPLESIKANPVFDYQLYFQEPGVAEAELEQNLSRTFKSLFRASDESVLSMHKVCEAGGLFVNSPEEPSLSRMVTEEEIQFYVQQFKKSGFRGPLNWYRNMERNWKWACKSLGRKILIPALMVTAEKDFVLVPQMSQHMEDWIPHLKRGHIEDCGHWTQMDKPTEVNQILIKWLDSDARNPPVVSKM
Kind of assay: biochemical screening assay for inhibition of soluble epoxide hydrolase (fluorometric, Phome substrate). A digest of the protocol:
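Human sEH from Sf9 cells (2 nM final) was pre-incubated 15 min at 30 °C with compound (0.0001–10 μM), then reacted 60 min at 30 °C with 5 μM Phome in 25 mM Hepes/0.01% albumin. Fluorescence of released 6-methoxy-2-naphthaldehyde was read before substrate and at end; IC50 from % inhibition.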

Counter-ions that a name gives are not always drawn.

A word on the IC50: it is the concentration needed to halve the response being measured.

For the compound `COC(=O)c1cccc(NC(=O)NC2COC3C(C#Cc4ccsc4)COC23)c1` [Example 309, 3-[3-((3S,3aR,6S,6aR)-6-Thio-phen-3-ylethynyl-hexahydro-furo[3,2-b]furan-3-yl)-ureido]-benzoic acid methyl ester], the IC50 came out at 16 nM.
Under `O=C(Nc1ccc2c(c1)CCC2)N[C@H]1CO[C@H]2[C@@H]1OC[C@@H]2C#Cc1ccsc1` [Example 310, 1-Indan-5-yl-3-((3S,3aR,6S,6aR)-6-thiophen-3-ylethynyl-hexahydro-furo[3,2-b]furan-3-yl)-urea] stands 73 nM; under `O=C(Nc1cccc(F)c1)N[C@H]1CO[C@H]2[C@@H]1OC[C@@H]2C#Cc1ccsc1` [Example 311, 1-(3-Fluoro-phenyl)-3-((3S,3aR,6S,6aR)-6-thiophen-3-ylethynyl-hexahydro-furo[3,2-b]furan-3-yl)-urea], 146 nM; under `CSc1cccc(NC(=O)N[C@H]2CO[C@H]3[C@@H]2OC[C@@H]3C#Cc2ccsc2)c1` [Example 312, 1-(3-Methylsulfanyl-phenyl)-3-((3S,3aR,6S,6aR)-6-thiophen-3-ylethynyl-hexahydro-furo[3,2-b]furan-3-yl)-urea], 107 nM.
Under `O=C(NCCc1cccs1)N[C@H]1CO[C@H]2[C@@H]1OC[C@@H]2C#Cc1ccsc1` [Example 313, 1-(2-Thiophen-2-yl-ethyl)-3-((3S,3aR,6S,6aR)-6-thiophen-3-ylethynyl-hexahydro-furo[3,2-b]furan-3-yl)-urea] stands 56 nM.
In the case of `O=C(NCCc1ccccc1)N[C@H]1CO[C@H]2[C@@H]1OC[C@@H]2C#Cc1ccsc1` [Example 314, 1-Phenethyl-3-((3S,3aR,6S,-6aR)-6-thiophen-3-ylethynyl-hexahydro-furo[3,2-b]furan-3-yl)-urea], the IC50 is 33 nM.
Under `O=C(Nc1ccc(OC(F)(F)F)cc1)N[C@H]1CO[C@H]2[C@@H]1OC[C@@H]2C#Cc1ccsc1` [Example 315, 1-((3S,3aR,6S,6aR)-6-Thiophen-3-ylethynyl-hexahydro-furo[3,2-b]furan-3-yl)-3-(4-trifluoromethoxy-phenyl)-urea] stands 15 nM.
Under `O=C(Nc1cccc(C(F)(F)F)c1)N[C@H]1CO[C@H]2[C@@H]1OC[C@@H]2C#Cc1ccsc1` [Example 316, 1-((3S,3aR,6S,6aR)-6-Thiophen-3-ylethynyl-hexahydro-furo[3,2-b]furan-3-yl)-3-(3-trifluoromethyl-phenyl)-urea] stands 87 nM; under `O=C(NC1CCCCC1)N[C@H]1CO[C@H]2[C@@H]1OC[C@@H]2/C=C\c1ccc2c(c1)OCO2` [Example 317, 1-[(3S,3aR,6S,6aR)-6-((Z)-2-Benzo[1,3]dioxol-5-yl-vinyl)-hexahydro-furo[3,2-b]furan-3-yl]-3-cyclohexyl-urea], 3 nM.
As for `O=C(Nc1ccc2c(c1)OCCO2)N[C@H]1CO[C@H]2[C@@H]1OC[C@@H]2/C=C\c1ccccc1` [Example 318, 1-(2,3-Dihydro-benzo[1,4]dioxin-6-yl)-3-[(3S,3aR,6S,6aR)-6-((Z)-styryl)-hexahydro-furo[3,2-b]furan-3-yl]-urea], the concentration for half-maximal inhibition (IC50) was determined as 227 nM.
Turning to `O=C(NC1CCCCC1)N[C@H]1CO[C@H]2[C@@H]1OC[C@@H]2/C=C\c1ccccc1` [Example 319, 1-Cyclohexyl-3-[(3S,3aR,6S,6aR)-6-((Z)-styryl)-hexahydro-furo[3,2-b]furan-3-yl]-urea], the IC50 turned out to be 17 nM.
In the case of `CCCCOc1ccc(NC(=O)NC2COC3C(C=Cc4ccccc4)COC23)cc1` [Example 320, 1-(4-Butoxy-phenyl)-3-[(3S,3aR,6R)-6-((S)-(Z)-styryl)-hexahydro-furo[3,2-b]furan-3-yl]-urea], the IC50 was 140 nM.
Under `COc1cc(NC(=O)NC2COC3C(C=Cc4ccccc4)COC23)cc(OC)c1` [Example 321, 1-(3,5-Dimethoxy-phenyl)-3-[(3S,3aR,6R)-6-((S)-(Z)-styryl)-hexa-hydro-furo[3,2-b]furan-3-yl]-urea] stands 66 nM.
Under `Cc1cc(C)cc(NC(=O)NC2COC3C(C=Cc4ccccc4)COC23)c1` [Example 322, 1-(3,5-Dimethyl-phenyl)-3-[(3S,3aR,6R)-6-((S)-(Z)-styryl)-hexa-hydro-furo[3,2-b]furan-3-yl]-urea] stands 7 nM.
`O=C(Nc1ccccc1)NC1COC2C(C=Cc3ccccc3)COC12` [Example 323, 1-Phenyl-3-[(3S,3aR,6R)-6-((S)-(Z)-styryl)-hexahydro-furo[3,2-b]furan-3-yl]-urea]: the IC50 is 190 nM.
The result for `O=C(Nc1ccc(OCc2ccccc2)cc1)NC1COC2C(C=Cc3ccccc3)COC12` [Example 324, 1-(4-Benzyloxy-phenyl)-3-[(3S,3aR,6R)-6-((S)-(Z)-styryl)-hexa-hydro-furo[3,2-b]furan-3-yl]-urea] reads 81 nM; that for `O=C(NCc1ccc(F)cc1)NC1COC2C(C=Cc3ccccc3)COC12` [Example 325, 1-(4-Fluoro-benzyl)-3-[(3S,3aR,6R)-6-((S)-(Z)-styryl)-hexahydro-furo[3,2-b]furan-3-yl]-urea], 75 nM; that for `O=C(Nc1ccc(Cl)c(Cl)c1)NC1COC2C(C=Cc3ccccc3)COC12` [Example 326, 1-(3,4-Dichloro-phenyl)-3-[(3S,3aR,6R)-6-((S)-(Z)-styryl)-hexa-hydro-furo[3,2-b]furan-3-yl]-urea], 27 nM.
Under `Cc1cccc(CNC(=O)N[C@H]2CO[C@@H]3[C@@H]2OC[C@H]3/C=C\c2ccccc2)c1` [Example 327, 1-(3-Methyl-benzyl)-3-[(3S,3aR,6R)-6-((S)-(Z)-styryl)-hexahydro-furo[3,2-b]furan-3-yl]-urea] stands 98 nM; under `O=C(Nc1ccc(F)cc1)NC1COC2C(C=Cc3ccccc3)COC12` [Example 328, 1-(4-Fluoro-phenyl)-3-[(3S,3aR,6R)-6-((S)-(Z)-styryl)-hexahydro-furo[3,2-b]furan-3-yl]-urea], 98 nM; under `O=C(Nc1cccc(F)c1)N[C@H]1CO[C@H]2[C@@H]1OC[C@@H]2/C=C\c1ccccc1` [Example 329, 1-(3-Fluoro-phenyl)-3-[(3S,3aR,6S,6aR)-6-((Z)-styryl)-hexahydro-furo[3,2-b]furan-3-yl]-urea], 95 nM.
Under `O=C(NCCc1cccs1)N[C@H]1CO[C@H]2[C@@H]1OC[C@@H]2/C=C\c1ccccc1` [Example 330, 1-[(3S,3aR,6S,6aR)-6-((Z)-Styryl)-hexahydro-furo[3,2-b]furan-3-yl]-3-(2-thiophen-2-yl-ethyl)-urea] stands 69 nM.
Regarding `O=C(NCCc1ccccc1)N[C@H]1CO[C@H]2[C@@H]1OC[C@@H]2/C=C\c1ccccc1` [Example 331, 1-Phenethyl-3-[(3S,3aR,6S,6aR)-6-((Z)-styryl)-hexahydro-furo[3,2-b]furan-3-yl]-urea], the IC50 came out at 18 nM.
Under `O=C(Nc1ccc(OC(F)(F)F)cc1)N[C@H]1CO[C@H]2[C@@H]1OC[C@@H]2/C=C\c1ccccc1` [Example 332, 1-[(3S,3aR,6S,6aR)-6-((Z)-Styryl)-hexahydro-furo[3,2-b]furan-3-yl]-3-(4-trifluoromethoxy-phenyl)-urea] stands 11 nM; under `O=C(Nc1cccc(C(F)(F)F)c1)N[C@H]1CO[C@H]2[C@@H]1OC[C@@H]2/C=C\c1ccccc1` [Example 333, 1-[(3S,3aR,6S,6aR)-6-((Z)-Styryl)-hexahydro-furo[3,2-b]furan-3-yl]-3-(3-trifluoromethyl-phenyl)-urea], 44 nM.
Under `O=C(NC1CCCCC1)N[C@H]1CO[C@H]2[C@@H]1OC[C@@H]2/C=C\c1ccccn1` [Example 334, 1-Cyclohexyl-3-[(3S,3aR,6S,6aR)-6-((Z)-2-pyridin-2-yl-vinyl)-hexahydro-furo[3,2-b]furan-3-yl]-urea; trifluoroacetate] stands 159 nM; under `COc1cc(NC(=O)NC2COC3C(C=Cc4ccsc4)COC23)cc(OC)c1` [Example 335, 1-(3,5-Dimethoxy-phenyl)-3-[(3S,3aR,-6S,6aR)-6-((Z)-2-thiophen-3-yl-vinyl)-hexahydro-furo[3,2-b]furan-3-yl]-urea], 665 nM; under `Cc1cc(C)cc(NC(=O)NC2COC3C(C=Cc4ccsc4)COC23)c1` [Example 336, 1-(3,5-Dimethyl-phenyl)-3-[(3S,3aR,6S,-6aR)-6-((Z)-2-thiophen-3-yl-vinyl)-hexahydro-furo[3,2-b]furan-3-yl]-urea], 47 nM.
As to `O=C(Nc1ccccc1)N[C@H]1CO[C@H]2[C@@H]1OC[C@@H]2/C=C\c1ccsc1` [Example 337, 1-Phenyl-3-[(3S,3aR,6S,6aR)-6-((Z)-2-thiophen-3-yl-vinyl)-hexahydro-furo[3,2-b]furan-3-yl]-urea], the IC50 is 423 nM.
Under `O=C(NCc1ccc(F)cc1)N[C@H]1CO[C@H]2[C@@H]1OC[C@@H]2/C=C\c1ccsc1` [Example 338, 1-(4-Fluoro-benzyl)-3-[(3S,3aR,6S,6aR)-6-((Z)-2-thiophen-3-yl-vinyl)-hexahydro-furo[3,2-b]furan-3-yl]-urea] stands 392 nM; under `Cc1cccc(CNC(=O)N[C@H]2CO[C@H]3[C@@H]2OC[C@@H]3/C=C\c2ccsc2)c1` [Example 339, 1-(3-Methyl-benzyl)-3-[(3S,3aR,6S,6aR)-6-((Z)-2-thiophen-3-yl-vinyl)-hexahydro-furo[3,2-b]furan-3-yl]-urea], 418 nM.
